Experimental data reported in article PMC9151520 (Archives of Toxicology, 2022).
Where “and” joins values, the source holds several entries; their conditions need not be identical. Equal entries are not always repeated. Where two headings read alike, the source gives them in different places.

Experiments:
[1] = test system: p53 signaling (p53RE-bla HCT-116 cells); test: cells; settings: Homo sapiens
[2] = test system: p53 signaling (p53RE-bla HCT-116 cells); settings: for EC50: read-out: p53 activation EC50
[3] = test system: p53 signaling (p53RE-bla HCT-116 cells); test: cells; assay type: cell-based
[4] = test system: p53 signaling (p53RE-bla HCT-116 cells)
[5] = test system: p53 signaling (p53RE-bla HCT-116 cells); test: cells; assay type: cell-based; remark: listed apart in the source
[6] = test system: p53 signaling (p53RE-bla HCT-116 cells); test: cells; assay type: cell-based; settings: Homo sapiens; for EC50: HCT-116
[7] = test system: p53 signaling (p53RE-bla HCT-116 cells); test: cells; settings: Homo sapiens; remark: listed apart in the source
[8] = HCT-116, read-out: p53 activation EC50, cherry pick confirmation
[9] = HCT-116, read-out: p53 activation efficacy, cherry pick confirmation

Oc1c(Cl)c(Cl)cc(Cl)c1Cl [2,3,5,6-Tetrachlorophenol]
EC50 ([1]; HCT-116, read-out: EC50, p53 activation, primary screening): 21 µM | Emax ([1]; HCT-116, read-out: Efficacy, p53 activation, primary screening): 35.1% | EC50, p53 activation, cherry pick confirmation [2]: inactive | EC50, p53 activation, primary screening [2]: inactive | Efficacy, p53 activation, cherry pick confirmation [2]: inactive | Efficacy, p53 activation, primary screening [2]: inactive | EC50 ([3]; Homo sapiens, HCT-116, read-out: EC50, p53 activation, cherry pick confirmation): 29.5 µM | EC50 ([3]; Homo sapiens, HCT-116, read-out: EC50, p53 activation, primary screening): 24.6 µM | Emax ([3]; Homo sapiens, HCT-116, read-out: Efficacy, p53 activation, cherry pick confirmation): 31.3% | Emax ([3]; Homo sapiens, HCT-116, read-out: Efficacy, p53 activation, primary screening): 36.3% | EC50, viability, cherry pick confirmation (p53RE-bla HCT-116 cells): inactive | EC50, viability, primary screening (p53RE-bla HCT-116 cells): inactive | Efficacy, viability, cherry pick confirmation (p53RE-bla HCT-116 cells): inactive | Efficacy, viability, primary screening (p53RE-bla HCT-116 cells): inactive | EC50, p53 activation, cherry pick confirmation [4]: inactive | Efficacy, p53 activation, cherry pick confirmation [4]: inactive

CCOP(=S)(OCC)SC(CCl)N1C(=O)c2ccccc2C1=O (stereo not shown) [Dialifor]
EC50 ([1]; HCT-116, read-out: p53 activation EC50): 3.03 µM | p53 activation efficacy [2]: 52.0707 | p53 activation EC50 [3]: inactive | p53 activation efficacy [3]: inactive | Viability EC50 (p53RE-bla HCT-116 cells): inactive | Viability efficacy (p53RE-bla HCT-116 cells): inactive | p53 activation EC50 [4]: inactive

COP(=O)(OC)O/C(C)=C/C(=O)N(C)C [Dicrotophos]
EC50 ([5]; Homo sapiens, HCT-116, 0.5 h): 11.5 µM | p53 activation efficacy [2]: 47.1617 | EC50 [2]: 14.3 µM | p53 activation EC50 [3]: inactive | p53 activation efficacy [3]: inactive | EC50 [6]: 9.07 µM | Viability EC50 (p53RE-bla HCT-116 cells): inactive | Viability efficacy (p53RE-bla HCT-116 cells): inactive | EC50 ([7]; HCT-116): 11.4 µM | Emax ([7]; HCT-116, read-out: efficacy): 40.6% | p53 activation EC50 [4]: inactive

c1ccc2cc3c(cc2c1)-c1cccc2cccc-3c12 [Benzo(k)fluoranthene]
EC50 ([5]; Homo sapiens, HCT-116, 0.5 h): 10.4 µM | p53 activation Efficacy, No MS [3]: 189.362% and 164.004% | EC50 ([3]; Homo sapiens, HCT-116, read-out: p53 activation EC50, No MS): 8.42 µM | EC50 ([3]; read-out: p53 activation EC50, No MS): 12.2 µM | EC50 [6]: 32.9 µM | Viability EC50, HLM (p53RE-bla HCT-116 cells): inactive | Viability EC50, No MS (p53RE-bla HCT-116 cells): inactive | Viability EC50, RLM (p53RE-bla HCT-116 cells): inactive | Viability Efficacy, HLM (p53RE-bla HCT-116 cells): inactive | Viability Efficacy, No MS (p53RE-bla HCT-116 cells): inactive | Viability Efficacy, RLM (p53RE-bla HCT-116 cells): inactive | EC50 ([7]; HCT-116): 37 µM | Emax ([7]; HCT-116, read-out: efficacy): 565%

COP(=O)(OC)OC(=CCl)c1cc(Cl)c(Cl)cc1Cl [Tetrachlorovinphos]
EC50 ([1]; HCT-116, read-out: p53 activation EC50, HLM): 16.4 µM | p53 activation EC50, No MS [3]: inactive | p53 activation Efficacy, No MS [3]: inactive | Viability EC50, HLM (p53RE-bla HCT-116 cells): inactive | Viability EC50, No MS (p53RE-bla HCT-116 cells): inactive | Viability EC50, RLM (p53RE-bla HCT-116 cells): inactive | Viability Efficacy, HLM (p53RE-bla HCT-116 cells): inactive | Viability Efficacy, No MS (p53RE-bla HCT-116 cells): inactive | Viability Efficacy, RLM (p53RE-bla HCT-116 cells): inactive | p53 activation EC50, HLM [4]: inactive

CCOP(=S)(OCC)SCSP(=S)(OCC)OCC [Ethion]
EC50 ([5]; Homo sapiens, HCT-116, 0.5 h): 5.91 µM | p53 activation efficacy [2]: 48.0253 | EC50 [2]: 2.04 µM | p53 activation EC50 [3]: inactive | p53 activation efficacy [3]: inactive | EC50 [6]: 3.29 µM | Viability EC50 (p53RE-bla HCT-116 cells): inactive | Viability efficacy (p53RE-bla HCT-116 cells): inactive | EC50 ([7]; HCT-116): 6.2 µM | Emax ([7]; HCT-116, read-out: efficacy): 53.8% | p53 activation EC50 [4]: inactive

COP(=S)(OC)Oc1ccc([N+](=O)[O-])c(C)c1 [Fenitrothion]
EC50 ([5]; Homo sapiens, HCT-116, 0.5 h): 4.18 µM | p53 activation EC50, cherry pick confirmation [3]: inactive | p53 activation EC50, primary screening [3]: inactive | p53 activation efficacy, cherry pick confirmation [3]: inactive | p53 activation efficacy, primary screening [3]: inactive | EC50 [6]: 10.4 µM | Viability EC50, cherry pick confirmation (p53RE-bla HCT-116 cells): inactive | Viability EC50, primary screening (p53RE-bla HCT-116 cells): inactive | Viability efficacy, cherry pick confirmation (p53RE-bla HCT-116 cells): inactive | Viability efficacy, primary screening (p53RE-bla HCT-116 cells): inactive | EC50 ([7]; HCT-116): 9.91 µM | Emax ([7]; HCT-116, read-out: efficacy): 116% | EC50 [7, 8]: 9.34 µM | EC50 ([7]; HCT-116, read-out: p53 activation EC50, primary screening): 2.58 µM | Emax [7, 9]: 93.3% | Emax ([7]; HCT-116, read-out: p53 activation efficacy, primary screening): 59.9% | p53 activation EC50, cherry pick confirmation [4]: inactive | p53 activation EC50, primary screening [4]: inactive | p53 activation efficacy, cherry pick confirmation [4]: inactive | p53 activation efficacy, primary screening [4]: inactive

COP(N)(=S)Oc1ccccc1C(=O)OC(C)C (stereo not shown) [Isocarbophos]
EC50 ([5]; Homo sapiens, HCT-116, 0.5 h): 25.6 µM | p53 activation EC50, primary screening [3]: inactive | p53 activation efficacy, primary screening [3]: inactive | EC50 ([3]; Homo sapiens, HCT-116, read-out: p53 activation EC50, cherry pick confirmation): 2.05 µM | Emax ([3]; Homo sapiens, HCT-116, read-out: p53 activation efficacy, cherry pick confirmation): 32.4% | EC50 [6]: 1.86 µM | Viability EC50, cherry pick confirmation (p53RE-bla HCT-116 cells): inactive | Viability EC50, primary screening (p53RE-bla HCT-116 cells): inactive | Viability efficacy, cherry pick confirmation (p53RE-bla HCT-116 cells): inactive | Viability efficacy, primary screening (p53RE-bla HCT-116 cells): inactive | EC50 ([7]; HCT-116): 4.93 µM | Emax ([7]; HCT-116, read-out: efficacy): 83.1% | EC50 [7, 8]: 3.72 µM | Emax [7, 9]: 78.7% | p53 activation EC50, cherry pick confirmation [4]: inactive | p53 activation efficacy, cherry pick confirmation [4]: inactive

Cc1cc(OC(=O)N(C)C)nn1C(=O)N(C)C [Dimetilan]
EC50 [5]: Inactive | p53 activation EC50, cherry pick confirmation [3]: inactive | p53 activation EC50, primary screening [3]: inactive | p53 activation efficacy, cherry pick confirmation [3]: inactive | p53 activation efficacy, primary screening [3]: inactive | EC50 [6]: 5.11 µM | Emax ([6]; HCT-116, read-out: efficacy): 43.6% | Viability EC50, cherry pick confirmation (p53RE-bla HCT-116 cells): inactive | Viability EC50, primary screening (p53RE-bla HCT-116 cells): inactive | Viability efficacy, cherry pick confirmation (p53RE-bla HCT-116 cells): inactive | Viability efficacy, primary screening (p53RE-bla HCT-116 cells): inactive | EC50 ([7]; HCT-116): 5.44 µM | Emax ([7]; HCT-116, read-out: efficacy): 34.6% | EC50 [7, 8]: 6.19 µM | Emax [7, 9]: 33.8% | p53 activation EC50, cherry pick confirmation [4]: inactive | p53 activation efficacy, cherry pick confirmation [4]: inactive
